Reference: PMC12142043, “Cell-based high-content approach for SARS-CoV-2 neutralization identifies unique monoclonal antibodies and PI3K pathway inhibitors” (Frontiers in Cell and Developmental Biology, 2025)
Read-outs that look alike come from different tables or passages of the source.

Key:
[1] = test system: SARS-CoV-2 (USA-WA1/2020) in Calu-3 cells; assay: microbe, parasite or virus in culture; type: cell-based; conditions: for EC50: Severe acute respiratory syndrome coronavirus 2, Calu-3, 48 h, above 30 μM reported as >30, read-out: EC50 (μM) dsRNA
[2] = test system: Calu-3 cells infected with SARS-CoV-2; type: cell-based, human; set-up: key to Grouping with red cluster (mock control) in UMAP: *: Clusters with mock control in high-dose treatment; conditions: for Shift in UMAP space with increasing concentration: Figure 5C-F; for Grouping with red cluster (mock control) in UMAP: high-dose treatment
[3] = test system: SARS-CoV-2 (USA-WA1/2020) in Calu-3 cells; type: cell-based; conditions: for dsRNA signal, AU High: high dose (10 µM); for dsRNA signal, AU High / dsRNA signal, AU Low: Calu-3, 48 h; for dsRNA signal, AU Low: low dose (100 nM)
[4] = test system: SARS-Cov-2 WA strain in A549 lung cells; type: cell-based
Calu-3 cells [5] = conditions: Figure 5C-F
Calu-3 cells [6] = assay: cells; conditions: Homo sapiens, Calu-3, read-out: EC50 (μM) Cell count

SMILES | Selectivity index [1] | EC50 [1] [µM] | Shift in UMAP space with increasing concentration [2] | Grouping with red cluster (mock control) in UMAP [2] | dsRNA signal, AU High [3] [AU] | dsRNA signal, AU Low [3] [AU] | Synergy (ZIP synergy model) [4] | Effect on host cell viability and morphology (Calu-3 cells [5]) | EC50 (Calu-3 cells [6]) [µM] | Effect on dsRNA / virus in dose response ([1]; Figure 5C-F) | Selectivity index ([1]; fold: cell count EC50 over dsRNA EC50) | Reduction of infection in representative images ([3]; Figure 4A)
CC(C)n1nc(-c2ccc3oc(N)nc3c2)c2c(N)ncnc21 [INK 128] | 11.590 | 0.213 | moving into cluster 1 | INK 128* | 0.0 | 31875.7 | Antagonism | little effect on host cell viability | 2.47 | – | – | –
Cc1c(Cn2c(C)nc3c(C(=O)O)cc(N4CCOCC4)cc32)cccc1C(F)(F)F [GSK2636771] | – | 0.319 | shift closer to cluster 1 controls | GSK2636771* | 841.3 | 28354.9 | – | minimal effect on host cell viability and morphology | > 30 | reduction of dsRNA | >94 | reduced infection greatly
